Like-named read-outs stand apart in the source and are kept apart here.
Columns and labels:
[1] = test system: E. coli S30 extract (bacterial protein synthesis); experiment: E. coli S30 extract coupled transcription-translation luciferase assay (inhibition of bacterial protein synthesis); type: biochemical; conditions: read-out: S30 IC50 (μM/% inhib.)
Protocol: E. coli S30 extract: Inhibition of bacterial protein synthesis was determined using the E. coli S30 Extract System for Circular DNA (Promega catalog #L-2010) and Luciferase Assay Reagent (Promega catalog #E1500) with slight modifications to a published protocol. Fyfe, C., Sutcliffe, J. A. and Grossman, T. H. (2012) “Development and characterization of a Pseudomonas aeruginosa in vitro coupled transcription-translation assay system for evaluation of translation inhibitors” J. Microbiol. Methods 90(3), 256-261.
Compounds were serial diluted in 0.5 mL microcentrifuge tubes by mixing and transferring 50 μL from the highest concentration to 50 μL of water, mixing and transferring 50 μL of this 2-fold dilution to 50 μL of water. This mixing and transferring was repeated so that there are a total of 8 tubes with serial dilutions of compound at 10× the desired screening concentration that are ultimately diluted to 1× by the addition of S30 luciferase synthesis mixture. Serial dilutions of compounds were added (2 μL) to wells in a black round bottom 96-well plate. Water (2 μL) was used as a “no inhibitor” control in 4 wells/plate. No DNA control reaction mixture (20 μL; see below) was used as a control in 4 wells/plate for background luminescence. S30 luciferase synthesis mixture (18 μL; see below) was added to wells with compounds or water mixture and incubated at 37° C. for 1 hour. Reactions were stopped by transferring to 4° C. refrigerator for 5 minutes then 25 μL of luciferase activity mix was added. Luminescence was measured using a BioTek Synergy HTX plate reader. % Inhibition was determined relative to no inhibitor controls. • S30 luciferase synthesis mixture: • 445 μL S30 extract, circular • 712 μL S30 Premix without amino acids • 4.45 μL pBESTluc™ DNA (1 μg/μL) • 78 μL complete amino acid mixture • 267 μL water • No DNA control: • 20 μL S30 extract, circular • 32 μL S30 Premix without amino acids • 7 μL complete amino acid mixture • 21 μL water Rabbit Reticulocyte lysate

[2] = target: Rabbit Reticulocyte Lysate (eukaryotic protein synthesis); experiment: Rabbit reticulocyte lysate luciferase assay (inhibition of eukaryotic protein synthesis); type: biochemical; conditions: read-out: Rabbit reticulocyte IC50 (μM/% inhib.)
Protocol: Inhibition of eukaryotic protein synthesis was determined using the Rabbit Reticulocyte Lysate System, Nuclease-Treated from Promega (catalog #L-4960) with slight modifications to the manufacturer's protocol. Compounds were serial diluted in 0.5 mL microcentrifuge tubes by mixing and transferring 50 μL from the highest concentration to 50 μL of water, mixing and transferring 50 μL of this 2-fold dilution to 50 μL of water. This mixing and transferring was repeated so that there are a total of 8 tubes with serial dilutions of compound at 10× the desired screening concentration that are ultimately diluted to 1× by the addition of rabbit reticulocyte luciferase synthesis mixture. Serial dilutions of compounds were added (2.5 μL) to wells in a black round bottom 96-well plate. Water (2.5 μL) was used as a “no inhibitor” control in 4 wells/plate. No RNA control reaction mixture (2 μL; see below) was used as a control in 4 wells/plate for background luminescence. Rabbit reticulocyte luciferase synthesis mixture (22.5 μL; see below) was added to wells with compounds or water mixture and incubated at 30° C. for 90 minutes. Luciferase assay reagent (25 μL) was added with luminescence measured using a BioTek Synergy HTX plate reader. % Inhibition was determined relative to no inhibitor controls.
Rabbit Reticulocyte Luciferase Synthesis Mixture:
• 1,000 μL rabbit reticulocyte lysate • 5.7 μL Luciferase Control RNA (1 μg/μL) • 26 μL complete amino acid mixture • 395 μL water • No RNA Control • 70 μL rabbit reticulocyte lysate • 2 μL complete amino acid mixture • 28 μL water Minimum Inhibitory Concentration (MIC)

A. baumannn (Ab) = experiment: Broth microdilution minimum inhibitory concentration (MIC), CLSI; type: cell-based; conditions: for MIC: read-out: Ab + bicarb MIC
Protocol: (§1) A certified BSL-2 laboratory was used for testing. Compounds were evaluated using the broth microdilution minimum inhibitory concentration (MIC) and minimum bactericidal concentration (MBC) assays defined by Clinical and Laboratory Standards Institute (CLSI) in the M26-A guideline against S. aureus (Sa), E. coli (Ec), K. pneumoniae (Kp), A. baumannn (Ab), E. faecalis (Ef) and P. aeruginosa (Pa).
(§2) MICs were determined using the Clinical Laboratory and Standards Institute (CLSI) Broth Microdilution Method with slight modification. Clinical and Laboratory Standards Institute (2012). “Methods for dilution antimicrobial susceptibility tests for bacteria that grow aerobically; approved standard, 9th ed. M07-A9 Clinical and Laboratory Standards Institute, Wayne, PA” Serial two-fold dilutions of compounds are prepared in sterile clear round-bottom 96-well plates.
(§3) To prepare microdilution trays, two-fold dilutions of antimicrobial agent are prepared in growth medium: Cation-Adjusted Mueller-Hinton Broth (CAMHB), or CAMHB supplemented with sodium bicarbonate (6.25 or 25 mM final concentration prepared from a 1.0M stock solution) or CAMHB supplemented with heat inactivated human serum (Fisher Cat. #BP2657100) 0-50% by adding 200 µL of the highest concentration to be tested (64 μg/mL, for example) in row A, mixing and transferring 100 μL from row A to 100 μL growth medium in row B, then repeating the mixing and transferring through row H of the 96-well plate, discarding the excess […] remaining. This slight modification to the CLSI protocol enables evaluation of MICs for 3 compounds per plate in triplicate, albeit with only 8 compound dilutions (CLSI protocol enables 2 compounds in triplicate with 10 dilutions). Bacterial suspensions are added to a final concentration of 5×10^4 CFU/well by adding 5 μL of a 1:10 dilution of a 0.5 McFarland suspension (1×10^8 CFU/mL) for each bacterium evaluated. Bacterial suspensions were prepared using the growth method described by CLSI. Well-isolated colonies (3-5 from an agar plate) were selected using a sterile loop and used to inoculate a tube containing 4 mL of CAMHB. The cultures are incubated at 35±2° C. until it achieves or exceeds the turbidity of the 0.5 McFarland standard, determined by measuring A600 (usually two to six hours). When growth exceeds a 0.5 McFarland standard, the turbidity is adjusted with broth to be equivalent to a 0.5 McFarland standard.

E. coli (Ec) = experiment: as above; type: cell-based; conditions: for MIC: Escherichia coli, read-out: E. coli + bicarb MIC
Protocol: as §1, §2, §3

E. faecalis (Ef) = experiment: as above; type: cell-based; conditions: for MIC: Enterococcus faecalis, read-out: Ef + bicarb MIC
Protocol: as §1, §2, §3

P. aeruginosa (Pa) = experiment: as above; type: cell-based; conditions: for MIC: Pseudomonas aeruginosa, read-out: Pa MIC + bicarb
Protocol: as §1, §2, §3

S. aureus (Sa) = experiment: as above; type: cell-based; conditions: for MIC: Staphylococcus aureus, read-out: Sa + bicarb MIC
Protocol: as §1, §2, §3

[3] = A. baumannn, growth medium with sodium bicarbonate
[4] = growth medium with sodium bicarbonate
[5] = class by IC50 or % inhibition @ 1 μM
[6] = growth medium supplemented with sodium bicarbonate

Row | SMILES | IC50 ([1]; % inhibition @ 1 μM) [µM] | IC50 ([2]; % inhibition @ 1 μM) [µM] | MIC (A. baumannn (Ab); [3]) [µg/mL] | MIC (E. coli (Ec); [4]) [µg/mL] | MIC (E. faecalis (Ef); [4]) [µg/mL] | MIC (P. aeruginosa (Pa); [4]) [µg/mL] | MIC (S. aureus (Sa); [4]) [µg/mL] | IC50 [1, 5] [µM] | IC50 [2, 5] [µM] | MIC (A. baumannn (Ab); Acinetobacter baumannii) [µg/mL] | MIC (E. coli (Ec); [6]) [µg/mL] | MIC (E. faecalis (Ef); [6]) [µg/mL] | MIC (P. aeruginosa (Pa); [6]) [µg/mL] | MIC (S. aureus (Sa); [6]) [µg/mL] | also measured
1 | CCN(Cc1ccc(-n2ccc(NC(=O)N3CCN(C(=O)C(C)(C)N)CC3)nc2=O)cc1)C12CC(CN)(C1)C2 [Compound 175] | ≥ 1 | ≥ 1 | > 32 | < 8 | < 8 | > 32 | < 8 |  |  |  |  |  |  |  | 
2 | CC(Cc1ccc(-n2ccc(NC(=O)N3CCN(C(=O)C(C)(C)N)CC3)nc2=O)cc1)NC12CC(N)(C1)C2 (stereo not drawn) [Compound 202] | ≥ 1 | ≥ 1 | 8 to 32 | > 32 | > 32 | > 32 | > 32 |  |  |  |  |  |  |  | 
3 | CC(C)(N)C(=O)N1CCN(C(=O)Nc2ccn(-c3ccc(CN4CCC5(N)CC5C4)cc3)c(=O)n2)CC1 (stereo not drawn) [Compound 20] |  |  |  |  |  |  |  | ≥ 1 | ≥ 1 |  |  |  |  |  | Ab + bicarb MIC (A. baumannn (Ab); A. baumannii, growth medium supplemented with sodium bicarbonate): + (An MIC (μg/mL) value that is 32 μg/mL or greater); E. coli + bicarb MIC (E. coli (Ec); [6]): +++ (An MIC value (μg/mL) that is less than 8 μg/mL); Ef + bicarb MIC (E. faecalis (Ef); [6]): ++ (An MIC value (μg/mL) that is 8 μg/mL or greater and less than 32 μg/mL); Pa MIC + bicarb (P. aeruginosa (Pa); [6]): + (An MIC (μg/mL) value that is 32 μg/mL or greater); Sa + bicarb MIC (S. aureus (Sa); [6]): +++ (An MIC value (μg/mL) that is less than 8 μg/mL)
4 | Cc1cc(-n2ccc(NC(=O)N3CCN(C(=O)C(C)(C)N)CC3)nc2=O)ccc1CCN1C[C@@H]2[C@@H](CN)[C@@H]2C1 [Compound 126] |  |  |  |  |  |  |  | < 0.5 | ≥ 1 | 8 to 32 | < 8 | 8 to 32 | 8 to 32 | < 8 | 
5 | CC(C)(N)C(=O)N1CCN(C(=O)Nc2ccn(-c3ccc(CCNC4CC5(CC(N)C5)C4)cc3)c(=O)n2)CC1 (stereo not drawn) [Compound 177] | ≥ 1 | ≥ 1 | > 32 | < 8 | 8 to 32 | > 32 | < 8 |  |  |  |  |  |  |  | 
6 | CC(C)(N)C(=O)N1CCN(C(=O)Nc2ccn(-c3ccc(CCCN4CCC5(CC4)CC(N)C5)cc3)c(=O)n2)CC1 [Compound 180] | ≥ 1 | ≥ 1 | > 32 | < 8 | > 32 | > 32 | 8 to 32 |  |  |  |  |  |  |  | 
7 | NC[C@H]1CCN(C(=O)Nc2ccn(-c3ccc(CN4C[C@@H]5[C@@H](N)[C@@H]5C4)cc3)c(=O)n2)C1 [Compound 253] | ≥ 1 | ≥ 1 | > 32 | > 32 | > 32 | > 32 | > 32 |  |  |  |  |  |  |  | 
8 | CC(Cc1ccc(-n2ccc(NC(=O)N3CCN(C(=O)C(C)(C)NCS(=O)(=O)O)CC3)nc2=O)cc1)N1C[C@@H]2[C@@H](CNCS(=O)(=O)O)[C@@H]2C1 (stereo partly drawn) [Compound 241] | < 0.5 | ≥ 1 | > 32 | < 8 | 8 to 32 | > 32 | < 8 |  |  |  |  |  |  |  | 
9 | CC(C)(N)C(=O)N1CCN(C(=O)Nc2ccn(-c3ccc(CCN4CCC5CC5(N)C4)cc3)c(=O)n2)CC1 (stereo not drawn) [Compound 93] |  |  |  |  |  |  |  | < 0.5 | ≥ 1 | > 32 | < 8 | < 8 | < 8 |  | 
10 | CC(C)(N)C(=O)N1CCN(C(=O)Nc2ccn(-c3ccc(CN4CC5(CCNCC5)C4)cc3)c(=O)n2)CC1 [Compound 81] |  |  |  |  |  |  |  | < 0.5 | ≥ 1 | > 32 | < 8 |  | > 32 | 8 to 32 | 
11 | CC(C)(N)C(=O)N1CCN(C(=O)Nc2ccn(-c3ccc(CN4C[C@@H]5[C@@H](N)[C@@H]5C4)cc3)c(=O)n2)C(c2ccccc2)C1 (stereo partly drawn) [Compound 27] |  |  |  |  |  |  |  | < 0.5 | ≥ 1 |  | < 8 |  | > 32 | 8 to 32 | 
12 | C[C@](N)(CO)C(=O)N1CCN(C(=O)Nc2ccn(-c3ccc(CN4CC5(CC(N)C5)C4)cc3)c(=O)n2)CC1 [Compound 36] |  |  |  |  |  |  |  | < 0.5 | ≥ 1 | > 32 | < 8 | > 32 | > 32 |  | 
13 | CC(C)(N)C(=O)N1CCN(C(=O)Nc2ccn(-c3ccc(CN4CC5(CNC5)C4)cc3)c(=O)n2)CC1 [Compound 46] |  |  |  |  |  |  |  | < 0.5 | ≥ 1 |  | < 8 | > 32 | > 32 | 8 to 32 | 
14 | C[C@@H]1CN(C(=O)[C@@](C)(N)CO)CCN1C(=O)Nc1ccn(-c2ccc(CN3C[C@@H]4[C@@H](N)[C@@H]4C3)cc2)c(=O)n1 [Compound 35] |  |  |  |  |  |  |  | < 0.5 | ≥ 1 | > 32 |  | 8 to 32 |  |  | 
15 | C[C@](N)(CO)C(=O)N1CCN(C(=O)Nc2ccn(-c3cccc(CCN4C[C@@H]5[C@@H](N)[C@@H]5C4)c3)c(=O)n2)CC1 [Compound 89] |  |  |  |  |  |  |  | ≥ 1 |  |  | 8 to 32 |  | > 32 | > 32 | 
16 | C[C@](N)(CO)C(=O)N1CCN(C(=O)Nc2ccn(-c3ccc(CN4C[C@@H]5[C@@H](N)[C@@H]5C4)cc3)c(=O)n2)CC1 [Compound 4] |  |  |  |  |  |  |  | < 0.5 | ≥ 1 | > 32 | < 8 | < 8 | > 32 |  | 
